In patent US20240116985A1, “STAPLED PEPTIDES AND METHODS THEREOF” (priority 2020, published 2024) one finds IC50 data, which are given here for 14 compounds.

As usually defined, the pIC50 is −log10 of the IC50, conventionally taken in molar units.

pIC50: −log10 of the molar value.

For this assay, the target named is T1, full-length beta-Catenin (Uniprot ID P35222) (Homo sapiens, UniProt P35222).
T1 construct: 10 nM full-length beta-Catenin (Uniprot ID P35222)
T1 sequence (P35222 1-781): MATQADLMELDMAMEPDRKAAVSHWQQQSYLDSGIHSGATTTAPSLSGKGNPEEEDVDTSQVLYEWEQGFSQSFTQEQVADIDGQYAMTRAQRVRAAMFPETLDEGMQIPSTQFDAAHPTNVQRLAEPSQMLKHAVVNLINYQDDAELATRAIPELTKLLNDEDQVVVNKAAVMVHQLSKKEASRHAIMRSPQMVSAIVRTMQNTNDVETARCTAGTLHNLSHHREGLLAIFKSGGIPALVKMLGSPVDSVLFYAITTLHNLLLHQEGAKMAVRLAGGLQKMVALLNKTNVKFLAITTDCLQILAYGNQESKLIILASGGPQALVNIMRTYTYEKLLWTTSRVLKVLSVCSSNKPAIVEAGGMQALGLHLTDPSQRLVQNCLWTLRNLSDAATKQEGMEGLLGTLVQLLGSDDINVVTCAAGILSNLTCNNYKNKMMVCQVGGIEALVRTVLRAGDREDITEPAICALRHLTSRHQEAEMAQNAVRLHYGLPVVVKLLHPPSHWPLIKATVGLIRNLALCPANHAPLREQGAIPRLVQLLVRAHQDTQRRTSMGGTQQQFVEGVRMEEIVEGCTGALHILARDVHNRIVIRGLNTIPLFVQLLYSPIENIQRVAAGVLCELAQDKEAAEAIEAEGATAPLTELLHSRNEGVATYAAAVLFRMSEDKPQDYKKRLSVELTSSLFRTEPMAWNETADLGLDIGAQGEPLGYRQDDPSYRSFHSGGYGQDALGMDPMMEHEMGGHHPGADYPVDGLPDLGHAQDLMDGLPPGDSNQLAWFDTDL
In words: Fluorescence polarization IC50 (beta-catenin / 5FAM-TCF4 10-53 competition). In kind it is binding. As to conditions: fluorescence polarization; read-out: beta-Catenin FP IC50. Background: In fluorescence polarisation assays a small probe gives low polarisation when free and higher when bound to something large.
Turning to `CC(=O)N1CCC[C@]12CC=CCCCC1(CCCC=CCCCOC(=O)N3CC[C@@](C(=O)N[C@@H](Cc4ccccc4)C(=O)N[C@@H](Cc4csc5ccccc45)C(N)=O)(C3)NC(=O)[C@H](CC(N)=O)NC(=O)[C@H](Cc3ccccc3)NC(=O)[C@H](C)NC(=O)[C@H](CCCCNC(C)C)NC(=O)[C@H](CCC(N)=O)NC(=O)[C@H](CC(=O)O)NC1=O)NC(=O)[C@H](CC1CCCCC1)NC(=O)[C@H](CC(N)=O)NC2=O` (stereo partly drawn) [I-2073, Ac-PL3-Asn-Cha-B5-Asp-Gln-iPrLys-Ala-Phe-Asn-PyrS2-Phe-BztA-NH2], the pIC50 was 6.40. As for `CC(=O)N1CCC[C@]12CC=CCCCC1(CCCC=CCCCOC(=O)N3CC[C@@](C(=O)N[C@@H](Cc4ccsc4)C(=O)N[C@@H](Cc4csc5ccccc45)C(=O)N[C@@H](CCO)C(N)=O)(C3)NC(=O)[C@H](CC(N)=O)NC(=O)[C@H](Cc3ccccc3)NC(=O)[C@H](C)NC(=O)[C@H](CCCCNC(C)C)NC(=O)[C@H](CCC(N)=O)NC(=O)[C@H](CC(=O)O)NC1=O)NC(=O)[C@H](CC1CCCCC1)NC(=O)[C@H](CC(N)=O)NC2=O` (stereo partly drawn) [I-2074, Ac-PL3-Asn-Cha-B5-Asp-Gln-iPrLys-Ala-Phe-Asn-PyrS2-3Thi-BztA-Hse-NH2], the pIC50 is 6.10.

For the compound `CC(=O)N1CCC[C@]12CC=CCCCC1(CCCC=CCCCOC(=O)N3CC[C@@](C(=O)N[C@@H](Cc4cccs4)C(=O)N[C@@H](Cc4csc5ccccc45)C(=O)N[C@@H](CCO)C(N)=O)(C3)NC(=O)[C@H](CC(N)=O)NC(=O)[C@H](Cc3ccccc3)NC(=O)[C@H](C)NC(=O)[C@H](CCCCNC(C)C)NC(=O)[C@H](CCC(N)=O)NC(=O)[C@H](CC(=O)O)NC1=O)NC(=O)[C@H](CC1CCCCC1)NC(=O)[C@H](CC(N)=O)NC2=O` (stereo partly drawn) [I-2075, Ac-PL3-Asn-Cha-B5-Asp-Gln-iPrLys-Ala-Phe-Asn-PyrS2-2Thi-BztA-Hse-NH2], the pIC50 is 5.63. In the case of `CC(=O)N1CCC[C@]12CC=CCCCC1(CCCC=CCCCOC(=O)N3CC[C@@](C(=O)N[C@@H](Cc4ccccc4C(F)(F)F)C(=O)N[C@@H](Cc4csc5ccccc45)C(=O)N[C@@H](C)C(N)=O)(C3)NC(=O)[C@H](CC(C)C)NC(=O)[C@H](Cc3ccccc3)NC(=O)[C@@H](C)NC(=O)[C@H](C)NC(=O)[C@H](Cc3cccc(C(=O)O)c3)NC(=O)[C@H](CC(=O)O)NC1=O)NC(=O)[C@H](CC(C)(C)C)NC(=O)[C@H](CC(=O)O)NC2=O` (stereo partly drawn) [I-2099, Ac-PL3-Asp-Npg-B5-Asp-3COOHF-Ala-dAla-Phe-Leu-PyrS2-2F3MeF-BztA-Ala-NH2], the pIC50 is 6.49. In the case of `CC(=O)N1CCC[C@]12CC=CCCCC1(CCCC=CCCCOC(=O)N3CC[C@@](C(=O)N[C@@H](Cc4ccccc4C(F)(F)F)C(=O)N[C@@H](Cc4csc5ccccc45)C(=O)N[C@H](C)C(N)=O)(C3)NC(=O)[C@H](CC(C)C)NC(=O)[C@H](Cc3ccccc3)NC(=O)[C@@H](C)NC(=O)[C@H](C)NC(=O)[C@H](Cc3cccc(C(=O)O)c3)NC(=O)[C@H](CC(=O)O)NC1=O)NC(=O)[C@H](CC(C)(C)C)NC(=O)[C@H](CC(=O)O)NC2=O` (stereo partly drawn) [I-2101, Ac-PL3-Asp-Npg-B5-Asp-3COOHF-Ala-dAla-Phe-Leu-PyrS2-2F3MeF-BztA-dAla-NH2], the negative logarithm of the IC50 (pIC50) was 6.37. Regarding `CC(=O)N1CCC[C@]12CC=CCCCC1(CCCC=CCCCOC(=O)N3CC[C@@](C(=O)N[C@@H](Cc4ccccc4)C(=O)N[C@@H](Cc4csc5ccccc45)C(=O)N[C@H](C(N)=O)[C@@H](C)O)(C3)NC(=O)[C@H](CC(N)=O)NC(=O)[C@H](Cc3ccccc3)NC(=O)[C@H](C)NC(=O)[C@H](CCCCNC(C)C)NC(=O)[C@H](CCC(N)=O)NC(=O)[C@H](CC(=O)O)NC1=O)NC(=O)[C@H](CC1CCCCC1)NC(=O)[C@H](CC(N)=O)NC2=O` (stereo partly drawn) [I-2112, Ac-PL3-Asn-Cha-B5-Asp-Gln-iPrLys-Ala-Phe-Asn-PyrS2-Phe-BztA-Thr-NH2], the pIC50 is 6.30. The value for `CC(=O)N1CCC[C@]12CC=CCCCC1(CCCC=CCCCOC(=O)N3CC[C@@](C(=O)N[C@@H](Cc4ccccc4)C(=O)N[C@@H](Cc4csc5ccccc45)C(=O)N[C@@H](CCC(N)=O)C(N)=O)(C3)NC(=O)[C@H](CC(N)=O)NC(=O)[C@H](Cc3ccccc3)NC(=O)[C@H](C)NC(=O)[C@H](CCCCNC(C)C)NC(=O)[C@H](CCC(N)=O)NC(=O)[C@H](CC(=O)O)NC1=O)NC(=O)[C@H](CC1CCCCC1)NC(=O)[C@H](CC(N)=O)NC2=O` (stereo partly drawn) [I-2113, Ac-PL3-Asn-Cha-B5-Asp-Gln-iPrLys-Ala-Phe-Asn-PyrS2-Phe-BztA-Gln-NH2] was 6.79. As for `CC(=O)N1CCC[C@]12CC=CCCCC1(CCCC=CCCCOC(=O)N3CC[C@@](C(=O)N[C@@H](Cc4ccsc4)C(=O)N[C@@H](Cc4csc5ccccc45)C(=O)N[C@@H](CCC(N)=O)C(N)=O)(C3)NC(=O)[C@H](CCO)NC(=O)[C@H](Cc3cccc(C(=O)O)c3)NC(=O)[C@H](C)NC(=O)[C@H](C)NC(=O)[C@H](Cc3ccc(O)cc3)NC(=O)[C@H](CC(=O)O)NC1=O)NC(=O)[C@H](CC(C)(C)C)NC(=O)[C@H](CC(=O)O)NC2=O` (stereo partly drawn) [I-2124, Ac-PL3-Asp-Npg-B5-Asp-Tyr-Ala-Ala-3COOHF-Hse-PyrS2-3Thi-BztA-Gln-NH2], the negative-log IC50 (pIC50) was 7.54. Take `CC(=O)N1CCC[C@]12CC=CCCCC1(CCCC=CCCCOC(=O)N3CC[C@@](C(=O)N[C@@H](Cc4ccsc4)C(=O)N[C@@H](Cc4csc5ccccc45)C(=O)N[C@@H](CCC(N)=O)C(N)=O)(C3)NC(=O)[C@H](CCO)NC(=O)[C@H](Cc3cccc(C(=O)O)c3)NC(=O)[C@H](C)NC(=O)[C@H](C)NC(=O)[C@H](Cc3ccc(O)cc3)NC(=O)[C@H](CC(=O)O)NC1=O)NC(=O)[C@H](CC(C)(C)C)NC(=O)[C@H](CC(=O)O)NC2=O` (stereo partly drawn) [I-2125, Ac-PL3-Asp-Npg-B5-Asp-Tyr-Ala-Ala-3COOHF-Hse-PyrS2-3Thi-BztA-Gln-NH2]: the negative logarithm of the IC50 (pIC50) is 7.59.

In the case of `CC(=O)N1CCC[C@]12CC=CCCCC1(CCCC=CCCCOC(=O)N3CC[C@@](C(=O)N[C@@H](Cc4ccsc4)C(=O)N[C@@H](Cc4csc5ccccc45)C(=O)N[C@@H](CCC(N)=O)C(N)=O)(C3)NC(=O)[C@H](CC(N)=O)NC(=O)[C@H](Cc3cccc(C(=O)O)c3)NC(=O)[C@H](C)NC(=O)[C@H](C)NC(=O)[C@H](Cc3c[nH]c4ccccc34)NC(=O)[C@H](CC(=O)O)NC1=O)NC(=O)[C@H](CC(C)(C)C)NC(=O)[C@H](CC(=O)O)NC2=O` (stereo partly drawn) [I-2127, Ac-PL3-Asp-Npg-B5-Asp-Trp-Ala-Ala-3COOHF-Asn-PyrS2-3Thi-BztA-Gln-NH2], the pIC50 was 7.44. For `CC(=O)N1CCC[C@]12CC=CCCCC1(CCCC=CCCCOC(=O)N3CC[C@@](C(=O)N[C@@H](Cc4ccsc4)C(=O)N[C@@H](Cc4csc5ccccc45)C(=O)N[C@@H](CCC(N)=O)C(N)=O)(C3)NC(=O)[C@H](CC(C)C)NC(=O)[C@H](Cc3cccc(C(=O)O)c3)NC(=O)[C@H](C)NC(=O)[C@H](C)NC(=O)[C@H](Cc3c[nH]c4ccccc34)NC(=O)[C@H](CC(=O)O)NC1=O)NC(=O)[C@H](CC(C)(C)C)NC(=O)[C@H](CC(=O)O)NC2=O` (stereo partly drawn) [I-2129, Ac-PL3-Asp-Npg-B5-Asp-Trp-Ala-Ala-3COOHF-Leu-PyrS2-3Thi-BztA-Gln-NH2], the pIC50 was 6.98. As for `CC(=O)N1CCC[C@]12CC=CCCCC1(CCCC=CCCCOC(=O)N3CC[C@@](C(=O)N[C@@H](Cc4ccsc4)C(=O)N[C@@H](Cc4csc5ccccc45)C(=O)N[C@@H](CCC(N)=O)C(N)=O)(C3)NC(=O)[C@H](CC(N)=O)NC(=O)[C@H](Cc3ccccc3)NC(=O)[C@H](C)NC(=O)[C@H](C)NC(=O)[C@H]([C@@H](C)O)NC(=O)[C@H](CC(N)=O)NC1=O)NC(=O)[C@H](CC(C)(C)C)NC(=O)[C@H](CN(CC(=O)O)CC(F)(F)F)NC2=O` (stereo partly drawn) [I-2130, Ac-PL3-TfeGA-Npg-B5-Asn-Thr-Ala-Ala-Phe-Asn-PyrS2-3Thi-BztA-Gln-NH2], the pIC50 is 5.31.

As to `CC(=O)N1CCC[C@]12CC=CCCCC1(CCCC=CCCCOC(=O)N3CC[C@@](C(=O)N[C@@H](Cc4ccsc4)C(=O)N[C@@H](Cc4csc5ccccc45)C(=O)N[C@@H](CCC(N)=O)C(N)=O)(C3)NC(=O)[C@H](CC(N)=O)NC(=O)[C@H](Cc3ccccc3)NC(=O)[C@H](C)NC(=O)[C@H](C)NC(=O)[C@H]([C@@H](C)O)NC(=O)[C@H](CC(N)=O)NC1=O)NC(=O)[C@H](CC(C)(C)C)NC(=O)[C@H](CN(CC(=O)O)CC(F)(F)F)NC2=O` (stereo partly drawn) [I-2131, Ac-PL3-TfeGA-Npg-B5-Asn-Thr-Ala-Ala-Phe-Asn-PyrS2-3Thi-BztA-Gln-NH2], the pIC50 is 5.49. Turning to `CC(=O)N1CCC[C@]12CC=CCCCC1(CCCC=CCCCOC(=O)N3CC[C@@](C(=O)N[C@@H](Cc4ccsc4)C(=O)N[C@@H](Cc4csc5ccccc45)C(=O)N[C@@H](CCC(N)=O)C(N)=O)(C3)NC(=O)[C@H](CC(N)=O)NC(=O)[C@H](Cc3ccccc3)NC(=O)[C@H](C)NC(=O)[C@H](C)NC(=O)[C@H]([C@@H](C)O)NC(=O)[C@H](CC(N)=O)NC1=O)NC(=O)[C@H](CC(C)(C)C)NC(=O)[C@H](CCCC(=O)O)NC2=O` (stereo partly drawn) [I-2133, Ac-PL3-Aad-Npg-B5-Asn-Thr-Ala-Ala-Phe-Asn-PyrS2-3Thi-BztA-Gln-NH2], the pIC50 was 5.06.
